Experiment [1] concerns myogenin. As to the kind of experiment: Myogenin protein level by Western blot in differentiating C2C12 cells. It counts as cell-based, Mouse. To be noted: 1, 10 and 50 µM, differentiation medium. The protocol:
(§1) Mouse myoblasts of the C2C12 cell line (ATCC) were seeded at a plating density of 7000 cells/cm2 in 6-well plates. They were grown in DMEM high glucose (4.5g/l) supplemented with gentamycin (50 µg/mL), amphotericin (50 µg/mL), and fetal calf serum (10%). Terminal differentiation was induced at cell confluence by lowering the medium serum concentration (0.5%).
(§2) When indicated, FuFA-F2 was added to the culture medium at the indicated concentration. For the differentiation studies, FuFA-F2 was added at the confluence at the same time as the change in media condition. Three doses of FuFA-F2 were studied at a final concentration of 1, 10, or 50 µM. Human insulin was used at a concentration of 100 nM.
Protein levels were assessed by Western blotting. Total proteins were measured using the Bio-Rad protein assay (Hercules, CA, USA) according to the manufacturer's instructions. Total proteins were lysed in RIPA buffer (20mM Tris, 150mM NaCl, 1mM EDTA, 1% NP40, pH 7.5 + complete cocktail protease inhibitors + Pierce phosphatase inhibitors tablet). 40 µg of cell extracts were loaded and blotted onto a nitrocellulose membrane. The membranes were washed, blocked with 5% nonfat milk and incubated in primary antibody overnight at 4°C. […]
On the technique in general: Immunoblotting shows a protein as a band on a membrane.

In experiment [2] the test system is ULK1. In words: ULK1 phosphorylation and total level by Western blot in C2C12 myotubes. It counts as cell-based, Mouse. To be noted: highest dose (50 µM). The protocol: as §1, §2
Protein levels were assessed by Western blotting. Total proteins were measured using the Bio-Rad protein assay (Hercules, CA, USA) according to the manufacturer's instructions. […]
AMP activated protein kinase (AMPK) is a crucial cellular energy sensor protein and is activated when intracellular ATP level decreases to regulate autophagy initiation (Hardie et al., 2012, Nat Rev Mol Cell Bio, Vol. 13 (4) : 251-262). […] The autophagy-related signaling was further evaluated by measuring the MTORC1 mediated phosphorylation […] at Ser757 which disrupts the interaction between ULK1 and AMPK. […] Therefore, the autophagic flux was assessed by measuring the conversion of LC3-I to LC3-II, through lipidation.

In experiment [3] the test system is C57Bl6 mice. In words: Oral gavage supplementation in C57Bl6 mice: food intake, body weight, body composition (EchoMRI), muscle weight. Format: in vivo. To be noted: 3 and a half weeks. The protocol: Male C57Bl/6J wild-type mice were obtained from Janvier at 12 weeks of age and were randomly assigned to one of the two groups based on body weight. Mice were housed 2 per cage and maintained on a 12-hour light/dark cycle (lights on at 7:30 pm). Food and water were provided ad libitum. Enrichment (nesting cotton squares) was provided in each cage. Mice were treated once daily by oral gavage with vehicle (50% PEG-400, 0.5% Tween 80, and 49.5% distilled water) or FuFA-F2 (20 mg/kg). All animal experiments were performed according to European directives (86/609/CEE and 2010/63/CEE) and approved by the regional animal experimentation ethics committe: Région Languedoc-Roussillon (No36). Our institutional guidelines for the care and use of laboratory animals were observed. Our animal facility is approved by the Departmental Veterinary Services (No. E34-172-10, 2019/03/04) and the Ministry of Research (DUO No. 7053, 2020/02/26). according to the European Directive 210-63-EU, mice were observed daily for the general health status and mortality scoring.
To investigate in vivo the potential impact a furan-containing compound under the form of a triacylgycerol of FuFA-F2 on muscle characteristics, C57Bl6 mice were supplemented by oral gavage with vehicle or FuFA-F2 (20mg/kg) for 3 and a half weeks (Fig. 6A). […] However, fat mass was similar between the two groups (Fig. 6E).

Where [4] appears, read: 20mg/kg oral gavage once daily, triacylglycerol of FuFA-F2, vs vehicle.
[5] abbreviates: 20mg/kg oral gavage, vs vehicle.

In the case of `CCCCCc1cc(C)c(CCCCCCCCC(=O)O)o1` [FuFA-F2], the expression of myogenin entry in experiment [1] was “no effect”. Also, in experiment [2], the “ULK1 phosphorylation at Ser757” value was “decreased” and the “total Ulk level” value is “also decreased”. Besides, in experiment [3] (setting [4]), the body weight entry is recorded as “significantly higher” and the food intake entry is recorded as “ate more”. In addition, in experiment [3] (setting [5]), the “weight of the gastrocnemius” value is recorded as “significantly increased” and the “weight of the quadriceps” value is given as “significantly increased”. Further, the fat mass entry in experiment [3] (EchoMRI, 20mg/kg oral gavage, between the two groups) is “similar”. Moreover, the lean mass result in experiment [3] (EchoMRI, 20mg/kg oral gavage, vs control mice) was “greater”.

(Values after patent publication EP4385508A1, “FURAN FATTY ACIDS FOR ENHANCING MUSCLE MASS” (Centre de Coopération Internationale en Recherche …, priority 2022, dated 2024).)
